# Test results taken from ChEMBL document CHEMBL1125246, “Configuration and preferential solid-state conformations of perindoprilat (S-9780). Comparison with the crystal structures of other ACE inhibitors and conclusions related to structure-activity relationships” (J Med Chem, 1991).
# Biological target: T1, Angiotensin-converting enzyme (Oryctolagus cuniculus, UniProt P12822)
# T1 sequence (P12822 whole entry): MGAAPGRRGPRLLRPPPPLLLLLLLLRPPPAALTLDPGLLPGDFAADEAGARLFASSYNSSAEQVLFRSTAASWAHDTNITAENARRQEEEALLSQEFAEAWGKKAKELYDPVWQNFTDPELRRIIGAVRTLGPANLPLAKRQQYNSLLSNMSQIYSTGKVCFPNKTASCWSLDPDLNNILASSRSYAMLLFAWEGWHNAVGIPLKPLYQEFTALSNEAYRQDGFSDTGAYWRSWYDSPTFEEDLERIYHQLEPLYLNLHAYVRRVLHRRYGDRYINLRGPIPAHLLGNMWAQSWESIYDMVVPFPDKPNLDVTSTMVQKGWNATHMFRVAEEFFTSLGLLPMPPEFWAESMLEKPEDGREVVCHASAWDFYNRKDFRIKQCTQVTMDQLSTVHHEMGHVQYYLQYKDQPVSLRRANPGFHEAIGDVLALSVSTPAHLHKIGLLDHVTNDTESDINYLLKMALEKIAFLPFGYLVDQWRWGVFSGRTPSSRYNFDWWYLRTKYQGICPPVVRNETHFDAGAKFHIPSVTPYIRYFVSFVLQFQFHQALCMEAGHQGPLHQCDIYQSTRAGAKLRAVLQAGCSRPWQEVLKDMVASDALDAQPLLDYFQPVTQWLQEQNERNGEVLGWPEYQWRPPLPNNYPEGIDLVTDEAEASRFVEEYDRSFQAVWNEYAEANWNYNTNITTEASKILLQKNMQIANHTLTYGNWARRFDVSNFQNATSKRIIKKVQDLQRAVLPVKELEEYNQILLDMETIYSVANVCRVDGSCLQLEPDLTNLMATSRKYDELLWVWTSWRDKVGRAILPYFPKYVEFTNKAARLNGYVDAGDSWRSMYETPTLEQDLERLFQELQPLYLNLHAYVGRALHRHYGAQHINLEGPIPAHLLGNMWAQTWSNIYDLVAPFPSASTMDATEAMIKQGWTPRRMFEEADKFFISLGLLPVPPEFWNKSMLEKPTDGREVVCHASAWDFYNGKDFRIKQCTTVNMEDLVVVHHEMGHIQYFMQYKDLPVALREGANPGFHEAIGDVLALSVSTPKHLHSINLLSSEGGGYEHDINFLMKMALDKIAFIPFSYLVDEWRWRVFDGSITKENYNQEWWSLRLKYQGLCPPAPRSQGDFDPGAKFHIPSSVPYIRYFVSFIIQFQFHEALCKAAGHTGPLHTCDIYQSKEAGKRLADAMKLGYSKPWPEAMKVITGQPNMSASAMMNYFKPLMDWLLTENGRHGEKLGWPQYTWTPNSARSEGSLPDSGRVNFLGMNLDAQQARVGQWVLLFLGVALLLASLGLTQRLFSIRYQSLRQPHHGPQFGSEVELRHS
# Assay: In vitro activity against angiotensin I converting enzyme especially against Hip-His-Leu residues
row,SMILES,IC50
1,O=C(O)C1CCCN1C(=O)CCS (stereo not given),200 nM
2,CCCC(N[C@@H](C)C(=O)N1C(C(=O)O)CC2CCCCC21)C(=O)O (stereo not given in full),1.5 nM
3,CCCC(N[C@H](C)C(=O)N1C(C(=O)O)CC2CCCCC21)C(=O)O (stereo not given in full),1100 nM

# Further molecules by falling IC50, results first:
row,IC50,SMILES
1,230 nM,O=C(O)[C@H](CCc1ccccc1)NCC(=O)N1CCC[C@H]1C(=O)O
2,1.9 nM,CCC[C@H](NCC(=O)N1C2CCCCC2C[C@H]1C(=O)O)C(=O)O (stereo not given in full)
